{
  "source": "paper PMC5218480",
  "about": "(PLoS ONE, 2017)",
  "test_system": "MV-4-11 cells",
  "test": "Gene expression microarray analysis (Affymetrix PrimeView) and GSEA",
  "format": "cell-based, human",
  "design": "RFU PODN (11730768_x_at) / Fold change /veh PODN (11730768_x_at) / RFU LINC00158 (11744669_a_at) / Fold change /veh LINC00158 (11744669_a_at) / RFU DUSP10 (11751237_a_at) / Fold change /veh DUSP10 (11751237_a_at) / RFU ID3 (11757404_x_at) / Fold change /veh ID3 (11757404_x_at) / RFU PLEKHG5 (11737974_s_at) / Fold change /veh PLEKHG5 (11737974_s_at) / RFU LRRC4B (11730491_at) / Fold change /veh LRRC4B (11730491_at) / RFU GIMAP4 (11747438_a_at) / Fold change /veh GIMAP4 (11747438_a_at) / RFU KRT8 (11758183_x_at) / Fold change /veh KRT8 (11758183_x_at) / RFU CNN1 (11734310_a_at) / Fold change /veh CNN1 (11734310_a_at) / RFU VPS37D (11726825_at) / Fold change /veh VPS37D (11726825_at) / RFU C10orf10 (11716522_x_at) / Fold change /veh C10orf10 (11716522_x_at) / RFU KIR2DL2 /// KIR2DL4 /// KIR2DL5A /// KIR2DL5B /// KIR2DS1 /// KIR2DS2 /// KIR2DS3 /// KIR2DS4 /// KIR3DL3 /// KIR3DL3 /// KIR3DS1 (11738374_at) / Fold change /veh KIR2DL2 /// KIR2DL4 /// KIR2DL5A /// KIR2DL5B /// KIR2DS1 /// KIR2DS2 /// KIR2DS3 /// KIR2DS4 /// KIR3DL3 /// KIR3DL3 /// KIR3DS1 (11738374_at) / RFU C1QL1 (11718748_at) / Fold change /veh C1QL1 (11718748_at) / RFU TMPRSS4 (11747572_a_at) / Fold change /veh TMPRSS4 (11747572_a_at) / RFU HAMP (11756126_x_at) / Fold change /veh HAMP (11756126_x_at) / RFU RNFT2 (11725882_a_at) / Fold change /veh RNFT2 (11725882_a_at) / RFU NR4A2 (11747474_a_at) / Fold change /veh NR4A2 (11747474_a_at) / RFU ABCC12 (11746883_a_at) / Fold change /veh ABCC12 (11746883_a_at) / RFU TMEM136 (11760407_x_at) / Fold change /veh TMEM136 (11760407_x_at) / RFU CLDN22 /// WWC2 (11732394_at) / Fold change /veh CLDN22 /// WWC2 (11732394_at) / RFU HLA-DPB1 (11760878_x_at) / Fold change /veh HLA-DPB1 (11760878_x_at) / RFU SPINT1 (11716480_a_at) / Fold change /veh SPINT1 (11716480_a_at) / RFU GAP43 (11754022_s_at) / Fold change /veh GAP43 (11754022_s_at) / RFU A4GNT (11735810_at) / Fold change /veh A4GNT (11735810_at) / RFU PRB3 (11715151_x_at) / Fold change /veh PRB3 (11715151_x_at) / RFU TUBB4B (11761932_at) / Fold change /veh TUBB4B (11761932_at) / RFU CAPN14 (11732068_a_at) / Fold change /veh CAPN14 (11732068_a_at) / RFU TMCC2 (11721928_a_at) / Fold change /veh TMCC2 (11721928_a_at) / RFU IRGQ (11745062_a_at) / Fold change /veh IRGQ (11745062_a_at) / RFU FAM174B (11720279_a_at) / Fold change /veh FAM174B (11720279_a_at) / RFU TMPRSS4 (11748680_a_at) / Fold change /veh TMPRSS4 (11748680_a_at) / RFU FAM212B (11763350_a_at) / Fold change /veh FAM212B (11763350_a_at) / RFU PLEKHG5 (11743358_a_at) / Fold change /veh PLEKHG5 (11743358_a_at) / RFU ZSCAN30 (11745921_a_at) / Fold change /veh ZSCAN30 (11745921_a_at) / RFU CMKLR1 (11741424_a_at) / Fold change /veh CMKLR1 (11741424_a_at) / RFU LOC101060620 /// MAPK8IP1 (11723275_at) / Fold change /veh LOC101060620 /// MAPK8IP1 (11723275_at) / RFU SPTSSB (11747773_x_at) / Fold change /veh SPTSSB (11747773_x_at) / RFU PRSS12 (11739890_at) / Fold change /veh PRSS12 (11739890_at) / RFU BIN1 (11741810_x_at) / Fold change /veh BIN1 (11741810_x_at) / RFU WNT11 (11732464_a_at) / Fold change /veh WNT11 (11732464_a_at) / RFU C10orf10 (11716521_a_at) / Fold change /veh C10orf10 (11716521_a_at) / RFU C5orf56 (11738089_at) / Fold change /veh C5orf56 (11738089_at) / RFU CYB561 (11721691_x_at) / Fold change /veh CYB561 (11721691_x_at) / RFU ANKRD19P (11752326_a_at) / Fold change /veh ANKRD19P (11752326_a_at) / RFU OR2T12 /// OR2T33 /// OR2T8 (11738714_s_at) / Fold change /veh OR2T12 /// OR2T33 /// OR2T8 (11738714_s_at) / RFU VCAN (11748164_a_at) / Fold change /veh VCAN (11748164_a_at) / RFU JSRP1 (11732532_at) / Fold change /veh JSRP1 (11732532_at) / RFU KRTAP10-11 (11738290_x_at) / Fold change /veh KRTAP10-11 (11738290_x_at) / RFU MYO3A (11730013_a_at) / Fold change /veh MYO3A (11730013_a_at) / RFU EBF3 (11725865_a_at) / Fold change /veh EBF3 (11725865_a_at) / RFU CAMK2N1 (11719241_x_at) / Fold change /veh CAMK2N1 (11719241_x_at) / RFU C5orf56 (11738088_a_at) / Fold change /veh C5orf56 (11738088_a_at) / RFU OLFML3 (11715873_a_at) / Fold change /veh OLFML3 (11715873_a_at) / RFU LOC100653217 /// NTM (11731650_a_at) / Fold change /veh LOC100653217 /// NTM (11731650_a_at) / RFU MAPK11 (11762145_a_at) / Fold change /veh MAPK11 (11762145_a_at) / RFU FIZ1 (11724087_x_at) / Fold change /veh FIZ1 (11724087_x_at) / RFU OASL (11726364_x_at) / Fold change /veh OASL (11726364_x_at) / RFU SOX15 (11748057_x_at) / Fold change /veh SOX15 (11748057_x_at) / RFU CD79A (11719716_a_at) / Fold change /veh CD79A (11719716_a_at) / RFU HIST1H1D (11736915_at) / Fold change /veh HIST1H1D (11736915_at) / RFU CASKIN2 (11723855_a_at) / Fold change /veh CASKIN2 (11723855_a_at) / RFU LOC730098 (11760151_x_at) / Fold change /veh LOC730098 (11760151_x_at) / RFU OR4N2 (11742367_at) / Fold change /veh OR4N2 (11742367_at) / RFU PRRT2 (11749266_a_at) / Fold change /veh PRRT2 (11749266_a_at) / RFU SNX32 (11753110_a_at) / Fold change /veh SNX32 (11753110_a_at) / RFU CDHR5 (11726645_a_at) / Fold change /veh CDHR5 (11726645_a_at) / RFU RCAN1 (11760418_a_at) / Fold change /veh RCAN1 (11760418_a_at) / RFU FAM167A (11723789_a_at) / Fold change /veh FAM167A (11723789_a_at) / RFU FAM26E (11764081_at) / Fold change /veh FAM26E (11764081_at) / RFU ISYNA1 (11749810_s_at) / Fold change /veh ISYNA1 (11749810_s_at) / RFU ACY1 (11761880_at) / Fold change /veh ACY1 (11761880_at) / RFU 11764098_at / Fold change /veh 11764098_at / RFU SAMD14 (11745864_x_at) / Fold change /veh SAMD14 (11745864_x_at) / RFU NPB (11741838_a_at) / Fold change /veh NPB (11741838_a_at) / RFU TMPRSS6 (11731388_a_at) / Fold change /veh TMPRSS6 (11731388_a_at) / RFU KRTAP10-2 (11738614_at) / Fold change /veh KRTAP10-2 (11738614_at) / RFU ARHGAP8 /// PRR5-ARHGAP8 (11727945_x_at) / Fold change /veh ARHGAP8 /// PRR5-ARHGAP8 (11727945_x_at) / RFU KRTAP5-7 /// NADSYN1 (11734609_at) / Fold change /veh KRTAP5-7 /// NADSYN1 (11734609_at) / RFU RASL12 (11751679_a_at) / Fold change /veh RASL12 (11751679_a_at) / RFU CDKN2B (11736163_a_at) / Fold change /veh CDKN2B (11736163_a_at) / RFU PRF1 (11729649_at) / Fold change /veh PRF1 (11729649_at) / RFU, ZNF638 /// ZNF638-IT1 / Fold change vs veh, ZNF638 /// ZNF638-IT1 / RFU, PANK3 / Fold change vs veh, PANK3 / RFU, SH3YL1 / Fold change vs veh, SH3YL1 / RFU, ZEB2 / Fold change vs veh, ZEB2 / RFU, NRIP1 / Fold change vs veh, NRIP1 / RFU, PTTG1IP / Fold change vs veh, PTTG1IP / RFU, CAPN2 / Fold change vs veh, CAPN2 / RFU, MED14 / Fold change vs veh, MED14 / RFU, SNORA58 / Fold change vs veh, SNORA58 / RFU, C1orf63 / Fold change vs veh, C1orf63 / RFU, LRRFIP1 / Fold change vs veh, LRRFIP1 / RFU, NDUFAF7 / Fold change vs veh, NDUFAF7 / RFU, SLC12A2 / Fold change vs veh, SLC12A2 / RFU, IBTK / Fold change vs veh, IBTK / RFU, ESF1 / Fold change vs veh, ESF1 / Fold change vs veh, TMEM50B / RFU, TAOK1 / Fold change vs veh, TAOK1 / RFU, ACBD3 / Fold change vs veh, ACBD3 / RFU, TMA16 / Fold change vs veh, TMA16 / RFU, RWDD3 / Fold change vs veh, RWDD3 / RFU, BCAT1 / Fold change vs veh, BCAT1 / RFU, EDEM3 / Fold change vs veh, EDEM3 / RFU, TMEM33 / Fold change vs veh, TMEM33 / RFU, WDR75 / Fold change vs veh, WDR75 / RFU, AHCTF1 / Fold change vs veh, AHCTF1 / RFU, TFRC / Fold change vs veh, TFRC / RFU, ZDHHC17 / Fold change vs veh, ZDHHC17 / RFU, NOM1 / Fold change vs veh, NOM1 / RFU, ARL8B / Fold change vs veh, ARL8B / RFU, ZBTB11 / Fold change vs veh, ZBTB11 / RFU, TAMM41 / Fold change vs veh, TAMM41 / RFU, KIAA1704 /// LOC100996395 / Fold change vs veh, KIAA1704 /// LOC100996395 / RFU, ING1 / Fold change vs veh, ING1 / RFU, TRMT61B / Fold change vs veh, TRMT61B / RFU, FUBP3 / Fold change vs veh, FUBP3 / RFU, TP53 / Fold change vs veh, TP53 / RFU, TNKS2 / Fold change vs veh, TNKS2 / RFU, ZFP14 / Fold change vs veh, ZFP14 / RFU, ACTR2 / Fold change vs veh, ACTR2 / RFU, PPP3R1 / Fold change vs veh, PPP3R1 / RFU, PIK3R1 / Fold change vs veh, PIK3R1 / RFU, HNRNPA1 / Fold change vs veh, HNRNPA1 / RFU, RNF170 / Fold change vs veh, RNF170 / RFU, ZNF28 / Fold change vs veh, ZNF28 / RFU, RNGTT / Fold change vs veh, RNGTT / RFU, OGT / Fold change vs veh, OGT / RFU, BRD1 / Fold change vs veh, BRD1 / RFU, MARS / Fold change vs veh, MARS / RFU, ZNF655 / Fold change vs veh, ZNF655 / RFU, FAHD1 / Fold change vs veh, FAHD1 / RFU, BDP1 / Fold change vs veh, BDP1 / RFU, LRRCC1 / Fold change vs veh, LRRCC1 / RFU, ARID1A / Fold change vs veh, ARID1A / RFU, ZNF146 / Fold change vs veh, ZNF146 / RFU, ZNF330 / Fold change vs veh, ZNF330 / RFU, GPN3 / Fold change vs veh, GPN3 / RFU, C9orf123 / Fold change vs veh, C9orf123 / RFU, N4BP2L2 / Fold change vs veh, N4BP2L2 / RFU, ARFIP1 / Fold change vs veh, ARFIP1 / RFU, FAM179B / Fold change vs veh, FAM179B / RFU, BCL10 / Fold change vs veh, BCL10 / RFU, UHRF1BP1L / Fold change vs veh, UHRF1BP1L / RFU, BET1 / Fold change vs veh, BET1 / RFU, CNOT2 / Fold change vs veh, CNOT2 / RFU, ZNF268 / Fold change vs veh, ZNF268 / Fold change vs veh, ZNF507 / RFU, DGCR2 / Fold change vs veh, DGCR2 / RFU, WDSUB1 / Fold change vs veh, WDSUB1 / Fold change vs veh, HSP90B1 /// MIR3652 / RFU, ADSS / Fold change vs veh, ADSS / RFU, GK / Fold change vs veh, GK / RFU, ZNF148 / Fold change vs veh, ZNF148 / RFU, TAF9 / Fold change vs veh, TAF9 / RFU, SLC1A5 / Fold change vs veh, SLC1A5 / RFU, SLMO2 / Fold change vs veh, SLMO2 / RFU, ABCC4 / Fold change vs veh, ABCC4 / RFU, LOC101060439 /// RAP1B / Fold change vs veh, LOC101060439 /// RAP1B / RFU, RFX7 / Fold change vs veh, RFX7 / RFU, GTPBP10 / Fold change vs veh, GTPBP10 / RFU, CNEP1R1 / Fold change vs veh, CNEP1R1 / RFU, BIVM-ERCC5 /// ERCC5 / Fold change vs veh, BIVM-ERCC5 /// ERCC5 / RFU, ILF3 / Fold change vs veh, ILF3 / RFU 11762660_at / Fold change /veh 11762660_at / RFU VCAN (11757783_s_at) / Fold change /veh VCAN (11757783_s_at) / RFU DDX43 (11728927_at) / Fold change /veh DDX43 (11728927_at) / RFU KRT8 (11758188_x_at) / Fold change /veh KRT8 (11758188_x_at) / RFU NKD1 (11759106_at) / Fold change /veh NKD1 (11759106_at) / RFU SRD5A1 (11742802_a_at) / Fold change /veh SRD5A1 (11742802_a_at) / RFU TPSAB1 /// TPSB2 (11721975_s_at) / Fold change /veh TPSAB1 /// TPSB2 (11721975_s_at) / RFU GSTM3 (11746129_a_at) / Fold change /veh GSTM3 (11746129_a_at) / RFU IL23R (11737362_x_at) / Fold change /veh IL23R (11737362_x_at) / RFU TMEM51 (11727254_a_at) / Fold change /veh TMEM51 (11727254_a_at) / RFU PIWIL2 (11732686_x_at) / Fold change /veh PIWIL2 (11732686_x_at) / RFU ORM1 (11744905_x_at) / Fold change /veh ORM1 (11744905_x_at) / RFU CCDC152 (11743942_at) / Fold change /veh CCDC152 (11743942_at) / RFU ECM1 (11717891_a_at) / Fold change /veh ECM1 (11717891_a_at) / RFU IL23R (11748794_a_at) / Fold change /veh IL23R (11748794_a_at) / RFU TNFAIP8L3 (11732012_x_at) / Fold change /veh TNFAIP8L3 (11732012_x_at) / RFU MBOAT4 (11741988_at) / Fold change /veh MBOAT4 (11741988_at) / RFU 11764193_at / Fold change /veh 11764193_at / RFU TMEM53 (11763286_at) / Fold change /veh TMEM53 (11763286_at) / RFU MAGEB2 (11727129_at) / Fold change /veh MAGEB2 (11727129_at) / RFU TMEM200A (11744735_a_at) / Fold change /veh TMEM200A (11744735_a_at) / RFU CCDC152 (11751479_a_at) / Fold change /veh CCDC152 (11751479_a_at) / RFU FAM211A (11726209_a_at) / Fold change /veh FAM211A (11726209_a_at) / RFU RGS16 (11746705_a_at) / Fold change /veh RGS16 (11746705_a_at) / RFU VCAN (11755009_s_at) / Fold change /veh VCAN (11755009_s_at) / RFU RHOB (11743442_s_at) / Fold change /veh RHOB (11743442_s_at) / RFU RGS16 (11720943_a_at) / Fold change /veh RGS16 (11720943_a_at) / RFU RGS16 (11720944_at) / Fold change /veh RGS16 (11720944_at) / RFU, VPS4B / Fold change vs veh, VPS4B / RFU, CREB1 / Fold change vs veh, CREB1 / RFU, DNAJC13 / Fold change vs veh, DNAJC13 / RFU, GNAQ / Fold change vs veh, GNAQ / RFU, CDK5R1 / Fold change vs veh, CDK5R1 / RFU, ZRANB3 / Fold change vs veh, ZRANB3 / RFU, CUL4A / Fold change vs veh, CUL4A / RFU, CCNY / Fold change vs veh, CCNY / RFU, UFL1 / Fold change vs veh, UFL1 / RFU, COG3 / Fold change vs veh, COG3 / RFU, DIAPH2 / Fold change vs veh, DIAPH2 / RFU, SKA2 / Fold change vs veh, SKA2 / RFU, AFF3 / Fold change vs veh, AFF3 / RFU, LMF1 / Fold change vs veh, LMF1 / RFU, IPO11 / Fold change vs veh, IPO11 / RFU, DFFB / Fold change vs veh, DFFB / RFU, FOXP1 / Fold change vs veh, FOXP1 / RFU, CARD8 / Fold change vs veh, CARD8 / RFU, STRN3 / Fold change vs veh, STRN3 / RFU, ADK / Fold change vs veh, ADK / RFU, RASSF2 / Fold change vs veh, RASSF2 / RFU, WIPF1 / Fold change vs veh, WIPF1 / RFU, LARP1B / Fold change vs veh, LARP1B / RFU, RASA1 / Fold change vs veh, RASA1 / RFU, RB1 / Fold change vs veh, RB1 / RFU, PPFIA1 / Fold change vs veh, PPFIA1 / RFU, MAT2A / Fold change vs veh, MAT2A / RFU, CCT5 / Fold change vs veh, CCT5 / RFU, WDR92 / Fold change vs veh, WDR92 / RFU, CUX1 / Fold change vs veh, CUX1 / RFU, TTC7A / Fold change vs veh, TTC7A / RFU, TMEM135 / Fold change vs veh, TMEM135 / RFU, DEPTOR / Fold change vs veh, DEPTOR / RFU, CPM / Fold change vs veh, CPM / RFU, DNAJB6 / Fold change vs veh, DNAJB6 / RFU, CACNA2D3 / Fold change vs veh, CACNA2D3 / RFU, DTX4 / Fold change vs veh, DTX4 / RFU, TFCP2 / Fold change vs veh, TFCP2 / RFU, GMCL1 /// GMCL1P1 / Fold change vs veh, GMCL1 /// GMCL1P1 / RFU, AEBP2 / Fold change vs veh, AEBP2 / RFU, SNHG1 /// SNORD22 /// SNORD25 /// SNORD26 /// SNORD27 /// SNORD28 /// SNORD29 /// SNORD31 / Fold change vs veh, SNHG1 /// SNORD22 /// SNORD25 /// SNORD26 /// SNORD27 /// SNORD28 /// SNORD29 /// SNORD31 / Fold change (Aza/veh), C12orf56 (ProbeSet 11735607_a_at) / Fold change (ACY-1035/veh), C12orf56 (ProbeSet 11735607_a_at) / Fold change (Aza/veh), FGFR1OP (ProbeSet 11751329_s_at) / Fold change (ACY-1035/veh), FGFR1OP (ProbeSet 11751329_s_at) / Fold change (Aza/veh), VPS36 (ProbeSet 11739960_a_at) / Fold change (ACY-1035/veh), VPS36 (ProbeSet 11739960_a_at) / RFU SYPL1 (11715823_x_at) / Fold change /veh SYPL1 (11715823_x_at) / RFU IGFBP7 (11715501_s_at) / Fold change /veh IGFBP7 (11715501_s_at) / RFU REEP3 (11722064_at) / Fold change /veh REEP3 (11722064_at) / RFU IGLL1 (11728026_x_at) / Fold change /veh IGLL1 (11728026_x_at): dose or concentration left out as unconfirmed",
  "details": "MV-4-11 cells, 48 hours",
  "data": [
    {"smiles": "Nc1ncn([C@@H]2O[C@H](CO)[C@@H](O)[C@H]2O)c(=O)n1", "note": "[azacitidine]", "values": [
      {"measurement": "RFU CYB561 (11721691_x_at)", "value": 13.47, "unit": "RFU"}
    ]}
  ]
}
